molecular target: human GluN1/GluN2B NMDA receptors (Homo sapiens, UniProt Q05586+Q13224); experiment: Cell-based calcium flux (FLIPR) assay on cloned human GluN1/GluN2B ion channels expressed in mammalian cells; details: standard assay; glutamate ~EC40, 10 μM glycine; stable Tet-On cell line
Procedure, shortened: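 Tet-On-induced stable cells expressing human GluN1/GluN2B, Calcium 5 dye. Compounds preincubated 5 min (agonist check), then glutamate at ~EC40 plus 10 μM glycine added for 5 min; Mg2+ and buffer composition differ between standard and HTS formats. FLIPR Tetra fluorescence normalised to control wells; (+)MK-801 as antagonist control.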

Chain of human GluN1/GluN2B NMDA receptors (Q13224 27-1484, other chains not shown): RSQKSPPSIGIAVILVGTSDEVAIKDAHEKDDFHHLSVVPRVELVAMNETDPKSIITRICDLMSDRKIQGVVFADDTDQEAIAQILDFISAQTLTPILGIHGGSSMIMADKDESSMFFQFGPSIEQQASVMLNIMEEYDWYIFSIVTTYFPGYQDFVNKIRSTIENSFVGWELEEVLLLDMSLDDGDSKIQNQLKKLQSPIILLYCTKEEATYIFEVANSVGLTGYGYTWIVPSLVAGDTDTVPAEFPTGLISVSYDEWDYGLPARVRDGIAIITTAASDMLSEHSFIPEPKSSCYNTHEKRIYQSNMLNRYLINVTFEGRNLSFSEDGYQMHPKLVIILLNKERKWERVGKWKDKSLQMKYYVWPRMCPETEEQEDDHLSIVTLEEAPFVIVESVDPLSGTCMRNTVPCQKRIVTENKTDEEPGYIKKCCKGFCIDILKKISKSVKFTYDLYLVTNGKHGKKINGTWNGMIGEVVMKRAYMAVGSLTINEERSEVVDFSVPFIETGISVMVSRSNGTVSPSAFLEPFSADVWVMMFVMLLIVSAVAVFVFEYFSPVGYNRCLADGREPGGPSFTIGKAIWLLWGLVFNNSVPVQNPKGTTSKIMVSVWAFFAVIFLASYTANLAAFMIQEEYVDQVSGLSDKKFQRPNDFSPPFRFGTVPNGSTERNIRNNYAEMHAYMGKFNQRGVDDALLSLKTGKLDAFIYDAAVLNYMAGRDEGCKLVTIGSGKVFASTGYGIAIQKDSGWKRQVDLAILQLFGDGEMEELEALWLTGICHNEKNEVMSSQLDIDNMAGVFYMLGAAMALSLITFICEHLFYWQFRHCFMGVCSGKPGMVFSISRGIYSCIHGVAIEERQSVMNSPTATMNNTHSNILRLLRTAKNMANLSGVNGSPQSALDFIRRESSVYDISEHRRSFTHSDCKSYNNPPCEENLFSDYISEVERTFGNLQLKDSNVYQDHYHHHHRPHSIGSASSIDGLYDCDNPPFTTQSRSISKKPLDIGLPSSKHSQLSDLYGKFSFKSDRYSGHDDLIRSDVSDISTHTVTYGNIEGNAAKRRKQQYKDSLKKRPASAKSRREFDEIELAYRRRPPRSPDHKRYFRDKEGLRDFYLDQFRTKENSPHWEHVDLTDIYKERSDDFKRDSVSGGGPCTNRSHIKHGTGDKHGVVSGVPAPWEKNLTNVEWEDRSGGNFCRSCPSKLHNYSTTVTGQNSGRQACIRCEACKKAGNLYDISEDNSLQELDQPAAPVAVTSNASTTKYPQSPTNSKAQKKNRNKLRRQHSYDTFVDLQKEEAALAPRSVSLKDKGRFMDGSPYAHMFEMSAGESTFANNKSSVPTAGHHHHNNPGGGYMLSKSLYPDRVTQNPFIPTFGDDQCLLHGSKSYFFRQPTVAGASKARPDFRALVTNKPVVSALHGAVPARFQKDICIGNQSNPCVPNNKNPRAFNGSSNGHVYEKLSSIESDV

| IC50 | Structure (SMILES) |
| --- | --- |
| 46 nM | COc1ncc(-c2ccc(F)c(C)c2F)cc1CN1CCOC1=O [Example 103, 3-[[5-(2,4-Difluoro-3-methyl-phenyl)-2-methoxy-3-pyridyl]methyl] oxazolidin-2-one] |
| 159 nM | COc1ncc(-c2cc(C)cc(F)c2)cc1CN1CCOC1=O [Example 104, 3-[[5-(3-Fluoro-5-methyl-phenyl)-2-methoxy-3-pyridyl]methyl]oxazolidin-2-one] |
| 434 nM | COc1ncc(-c2cccc(C)c2)cc1CN1CCOC1=O [Example 105, 3-[[2-Methoxy-5-(m-tolyl)-3-pyridyl]methyl]oxazolidin-2-one] |
| 33 nM | COc1ncc(-c2ccc(Cl)c(Cl)c2)cc1CN1CCOC1=O [Example 106, 3-[[5-(3,4-Dichlorophenyl)-2-methoxy-3-pyridyl]methyl]oxazolidin-2-one] |
| 11 nM | COc1ncc(-c2ccc(Cl)c(OC(F)F)c2)cc1CN1CCOC1=O [Example 107, 3-[[5-[4-Chloro-3-(difluoromethoxy)phenyl]-2-methoxy-3-pyridyl]methyl]oxazolidin-2-one] |
| 32 nM | COc1ncc(-c2ccc(F)c(Cl)c2)cc1CN1CCOC1=O [Example 108, 3-[[5-(3-Chloro-4-fluoro-phenyl)-2-methoxy-3-pyridyl]methyl]oxazolidin-2-one] |
| 477 nM | COc1ncc(-c2cccc(Cl)c2)cc1CN1CCOC1=O [Example 109, 3-[[5-(3-Chlorophenyl)-2-methoxy-3-pyridyl]methyl]oxazolidin-2-one] |
| 37 nM | COc1ncc(-c2ccc(F)c(C(C)(F)F)c2)cc1CN1CCOC1=O [Example 110, 3-[[5-[3-(1,1-Difluoroethyl)-4-fluoro-phenyl]-2-methoxy-3-pyridyl]methyl]oxazolidin-2-one] |
| 47 nM | COc1ncc(-c2cccc(C(C)(F)F)c2)cc1CN1CCOC1=O [Example 111, 3-[[5-[3-(1,1-Difluoroethyl)phenyl]-2-methoxy-3-pyridyl]methyl]oxazolidin-2-one] |
| 18 nM | COc1ncc(-c2cc(C)c(F)c(F)c2)cc1CN1CCOC1=O [Example 112, 3-[[5-(3,4-Difluoro-5-methyl-phenyl)-2-methoxy-3-pyridyl]methyl] oxazolidin-2-one] |
| 13 nM | COc1ncc(-c2ccc(F)c(OC(F)(F)F)c2)cc1CN1CCOC1=O [Example 113, 3-[[5-[4-Fluoro-3-(trifluoromethoxy)phenyl]-2-methoxy-3-pyridyl]methyl]oxazolidin-2-one] |
| 542 nM | COc1ncc(-c2cc(F)cc(C)c2F)cc1CN1CCOC1=O [Example 114, 3-[[5-(2,5-Difluoro-3-methyl-phenyl)-2-methoxy-3-pyridyl]methyl] oxazolidin-2-one] |
| 10 nM | COc1ncc(-c2ccc(Cl)c(C(F)F)c2)cc1CN1CCOC1=O [Example 115, 3-[[5-[4-Chloro-3-(difluoromethyl)phenyl]-2-methoxy-3-pyridyl]methyl]oxazolidin-2-one] |
| 18 nM | COc1ncc(-c2ccc(F)c(C)c2)cc1CN1CCOC1=O [Example 116, 3-[[5-(4-Fluoro-3-methyl-phenyl)-2-methoxy-3-pyridyl]methyl]oxazolidin-2-one] |
| 60 nM | COc1ncc(-c2ccc(F)c(OC(F)F)c2)cc1CN1C(=O)OC[C@@H]1C [Example 117, (4S)-3-[[5-[3-(Difluoromethoxy)-4-fluoro-phenyl]-2-methoxy-3-pyridyl]methyl]-4-methyl-oxazolidin-2-one] |
| 26 nM | COc1ncc(-c2ccc(F)c(OC(F)F)c2)cc1CN1C(=O)OC[C@H]1C [Example 118, (4R)-3-[[5-[3-(Difluoromethoxy)-4-fluoro-phenyl]-2-methoxy-3-pyridyl]methyl]-4-methyl-oxazolidin-2-one] |
| 12 nM | COc1ncc(-c2ccc(F)c(OC(F)F)c2)cc1CN1CCOC1=O [Example 119, 3-[[5-[3-(Difluoromethoxy)-4-fluoro-phenyl]-2-methoxy-3-pyridyl]methyl]oxazolidin-2-one] |

Source: patent publication US11447503B2, “Pyridine carbamates and their use as GLUN2B receptor modulators” (JANSSEN PHARMACEUTICA NV, priority 2019, dated 2022)
